# Assay results from patent US20230033195A1, “METHODS AND COMPOSITIONS FOR IMPROVING COGNITIVE FUNCTION” (THE JOHNS HOPKINS UNIVERSITY, priority 2011, published 2023).
# How the values were obtained:
# [1] = tested on: aMCI subjects; assay: neuropsychological tests outside the scanner; assay type: in vivo, human; details: 125 mg twice a day for two weeks, vs placebo
# Description: A within-subjects trial of 8 weeks duration, involving 17 amnestic MCI (aMCI) subjects and 17 age-matched controls with a low dose treatment of levetiracetam is conducted. During the course of the study, each aMCI subject receives both drug and placebo treatments separately in two periods of two weeks each, with the order of treatments among different aMCI subjects counterbalanced (see FIG. 7). Age-matched control subjects treated with placebo serve as a further control. Cognitive testing and fMRI imaging data are obtained from the subjects after each two week period of drug/placebo treatment. All participants undergo neuropsychological evaluation at the time of assessment for treatment efficacy (Visits 1 and 2), as well as at the Baseline Visit. The evaluation occurs outside of the scanner and includes the Buschke Selective Reminding Test (Buschke and Fuld, 1974) and the Verbal Paired Associates subtest, the Logical Memory subtest, the Visual Reproduction subtest of the Wechsler Memory Scale-Revised (WMS-R) (Wechsler, 1997), and the Benton Visual Retention Test, as these tasks are particularly sensitive to medial temporal lobe function and early memory problems (Marquis et al., 2002 and Masur et al., 1994). Additionally, subjects are asked to complete tests of more general cognitive function such as tests to assess general mental status, executive function, attention and general naming ability. All neuropsychological tests are administered by a trained research assistant during a 60-minute session. As the three neuropsychological assessments in this study occur within a time period of 8 weeks, different versions of the neuropsychological tests are used to minimize test specific practice effects. Breaks are provided to the subject as needed.
# [2] = tested on: entorhinal cortex (EC) of aMCI subjects; assay: fMRI activity during lure stimuli correctly identified as similar, entorhinal cortex; assay type: in vivo, human; details: 125 mg twice a day for two weeks
# Description: FIG. 9B depicts the average activity in the left entorhinal cortex of the same aMCI subjects with placebo treatment or levetiracetam treatment (125 mg twice a day for two weeks) during the presentation of lure stimuli that the subject correctly identified as "similar."
# A within-subjects trial of 8 weeks duration, involving 17 amnestic MCI (aMCI) subjects and 17 age-matched controls with a low dose treatment of levetiracetam is conducted. During the course of the study, each aMCI subject receives both drug and placebo treatments separately in two periods of two weeks each, with the order of treatments among different aMCI subjects counterbalanced (see FIG. 7). Age-matched control subjects treated with placebo serve as a further control. Cognitive testing and fMRI imaging data are obtained from the subjects after each two week period of drug/placebo treatment.
# Imaging data are obtained through high-resolution methods developed in the Stark laboratory. Data are collected on a Phillips 3 Tesla scanner (Eindhoven, The Netherlands) equipped with an 8-channel SENSE (Sensitivity Encoding) head coil, located at the F.M. Kirby Research Center for Functional Brain Imaging at the Kennedy Krieger Institute (Baltimore, MD). […]
# Group data are analyzed using a two-way Analysis of Variance (ANOVA) with trial types and group as fixed factors, and subject as a random factor nested within group. […]
structure (smiles),measurement,setting,value
"CC[C@@H](C(N)=O)N1CCCC1=O [levetiracetam, (2S)-2-(2-oxopyrrolidin-1-yl) butanamide]",Benton Visual Rentention Test performance,[1],fail to rescue performance
same,Buschke Selective Reminding Test - Delayed Recall performance,[1],fail to rescue performance
same,Verbal Paired Associates Test - Delayed Recall performance,[1],fail to rescue performance
same,Verbal Paired Associates Test - Recognition performance,[1],fail to rescue performance
same,EC activity compared with placebo-treated control subjects,[2],statistically indistinguishable
same,"EC activity during memory judgments, vs placebo treatment",[2],increases EC activity
